Columns and labels:
[1] = Biomimetic HPLC lipophilicity determination, cholesterol-bound column; type: physicochemical; conditions: CHOL column; for s (slope of Soczewiński-Wachtmeister equation): ACN-phosphate buffer pH 7.4; for logkw: ACN-phosphate buffer pH 7.4, retention factor extrapolated to pure water
Description: (§1) To determine lipophilicity of the tested astragalosides, the biomimetic-High Performance Liquid Chromatography (HPLC) systems with a cholesterol-bound (CHOL) stationary phase as well as the Immobilized Artificial Membrane (IAM) column were used. These stationary phases have pseudomembrane properties and therefore are widely applied in chromatographic practice to determine lipophilicity of various groups of compounds, including newly synthesized ones.
(§2) Based on the Soczewiński–Wachtmeister Equation (1), the logarithms of retention factors extrapolated to pure water (logkw) values were calculated. These values can be considered as an alternative to the n-octanol/water partition coefficient recognized as the lipophilicity descriptor [31]. logk = logkw − sφ(1) where logk is the logarithm of the retention factor in the mixed effluent systems; φ is the volume fraction of organic modifier in the mobile phase; s is the slope characteristic of a given solute in the chromatographic system.
(§3) The Shimadzu Vp liquid chromatographic system (Shimadzu, Kyoto, Japan) equipped with an LC 10AT pump, an SPD 10A UV-Vis detector, an SCL 10A system controller, a CTO-10 AS chromatographic oven and a Rheodyne injector valve with a 20 µL loop was applied in the HPLC measurements.
(§4) The solutions of the isolated A IV as well as pharmacopoeial standards of A I–A III were prepared in methanol (Merck, Darmstadt, Germany; p.a.) at a concentration of 1 mg/mL. […] The optimization process of the chromatographic separation was made before the experiment. The flow rate of the mobile phases was established to be 1 mL/min and the temperature was set at 20 °C. The tested compounds were detected with UV light at λ = 203 nm.
(§5) The IAM.PC.DD2 column (IAM; 100 × 4.6 mm i.d., 10 µm; Regis Technologies, Morton Grove, IL, USA) and cholesterol-bonded (CHOL; Cosmosil; 75 × 2 mm i.d., 2.5 µm; Genore, Warsaw, Poland) were used as the stationary phase while the buffered solutions of acetonitrile (ACN) were used as mobile phases. In each measurement the composition of the mobile phases was: 0.3; 0.4; 0.5; 0.6 v/v ACN-buffer. The buffer was prepared from solutions of both Na2HPO4 (0.02 mol/dm^3) and citric acid (0.01 mol/dm^3).
(§6) The dead-time values were measured from the citric acid peaks. All the reported logarithms of the retention factors were measured three times.

[2] = Biomimetic HPLC lipophilicity determination, IAM column; type: physicochemical; conditions: for s (slope of Soczewiński-Wachtmeister equation): ACN-phosphate buffer pH 7.4; for logkw: ACN-phosphate buffer pH 7.4, retention factor extrapolated to pure water
Description: as §1, §2, §3, §4, §5, §6

[3] = target: acetylcholinesterase (AChE) enzyme (Homo sapiens, UniProt P22303); test: TLC bioautography assay for inhibition of acetylcholinesterase; type: biochemical; conditions: amount of compound per spot
acetylcholinesterase (AChE) enzyme, sequence (P22303 32-614): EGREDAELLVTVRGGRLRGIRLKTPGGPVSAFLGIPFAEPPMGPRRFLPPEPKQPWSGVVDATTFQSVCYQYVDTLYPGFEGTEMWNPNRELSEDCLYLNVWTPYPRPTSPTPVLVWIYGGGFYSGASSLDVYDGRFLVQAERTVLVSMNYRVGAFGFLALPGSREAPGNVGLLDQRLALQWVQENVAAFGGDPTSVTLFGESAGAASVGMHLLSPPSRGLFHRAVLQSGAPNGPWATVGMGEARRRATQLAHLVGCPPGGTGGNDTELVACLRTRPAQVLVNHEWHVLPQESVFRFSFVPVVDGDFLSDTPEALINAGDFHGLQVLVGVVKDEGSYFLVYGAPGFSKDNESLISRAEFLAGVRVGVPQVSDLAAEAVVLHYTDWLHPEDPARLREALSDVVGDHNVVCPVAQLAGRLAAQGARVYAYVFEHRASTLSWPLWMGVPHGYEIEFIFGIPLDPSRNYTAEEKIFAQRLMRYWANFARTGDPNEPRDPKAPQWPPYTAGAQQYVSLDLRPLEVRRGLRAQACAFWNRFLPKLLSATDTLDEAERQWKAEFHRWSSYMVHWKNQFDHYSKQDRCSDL
Procedure: In this study, the reference compounds of astragalosides II (A II), III (A III) and IV (A IV) at different concentrations were injected into the normal phase TLC plate covered with silica gel. Each experiment was repeated three times and the average values of the obtained peak areas corresponding to different injections of pure astragalosides were taken for the calculation of IC50 values of the saponins. For the three astragalosides: II, III and IV the following calibration curve equations were obtained: y = 70,773,628.9063x − 62,644.2995 (R^2 = 0.9732), y = 33,106,972.8125x − 67,429.4097 (R^2 = 0.9771), and y = 48,308,195.3125x + 3538.3021 (R^2 = 0.9981), respectively.
The TLC-bioautography method was used to determine the IC50 values of the tested saponins. Owing to the application of this technique, bright spots of active compounds were registered against the dark background. The TLC chromatogram was obtained on aluminium-covered normal phase TLC plates (Merck, Darmstadt, Germany, silica gel 60 F254).
To calculate the strength of the astragalosides, the IC50 values were determined for astragalosides II, III, and IV. For this purpose, 1 mg/mL solutions of all pure compounds were sprayed on the TLC plate using the Camag Linomat 5 (Muttenz, Switzerland) with the decreasing volumes in the range of 0.002–0.008 mg of compounds per spotevery 1 cm.
Later the TLC plate was subjected to the TLC-bioautography assay towards inhibitory properties against the AChE enzymeas described previously. Briefly, first the TLC plates were sprayed with asolution of 30 mg/20 mL of 1-naphtyl acetate. […] The chromatogram was analysed by the WinCats (v. 1.4, Camag) program and the peak areas of every spot were determined. Based on the numerical values obtained corresponding to the intensity of discoloured zones measured with the peak areas, the calibration curves were determined and the IC50 values were calculated as half of the peak area from the biggest spot that stayedwithin the linearity range area.

[4] = tested on: SH-SY5Y human neuroblastoma cell line; test: In vitro cytotoxicity test (MTT); type: cell-based; conditions: for cell viability versus control group (saline): 24 h, MTT
Procedure: The SH-SY5Y human neuroblastoma cell lines (ATCC CRL-2266) were maintained in a1:1 mixture of Eagle’s Minimum Essential Medium and F12 Medium, supplemented with 10% (v/v) of foetal bovine serum. The cells were grown at 37 °C in a humidified incubator with 5% CO2.
The viability of SH-SY5Y cells was evaluated based on the reduction of the yellow tetrazolium salt (3-(4,5-dimethylthiazol-2-yl)-2,5-diphenyltetrazolium bromide or MTT) to the purple formazan crystals by the metabolically active cells. The cells were seeded onto the 96-well plates at the density of 10,000 cells/well, grown overnight and treated with astragaloside IV at 6, 12.5 or 25 μg/mL. Following 24 h of incubation the medium was replaced with 200 µL of fresh medium containing MTT (final concentration 0.5 mg/mL) and the cells were incubated for a further 4 h at 37 °C. The precipitated formazan was dissolved in 100 µL DMSO and the absorbance of the samples was measured at λ = 540 nm. The mean absorbance measured for the control cells, treated with the solvent (saline), was set to 100% cellular viability and used to calculate the percent of viable cells under each experimental condition.

[5] = tested on: zebrafish (Danio rerio) embryos; test: Zebrafish embryo acute toxicity test (OECD Test No. 236); type: in vivo
Procedure: Zebrafish (Danio rerio) embryos were obtained from the Experimental Medicine Centre, Medical University of Lublin, Poland. The animals were kept in an incubator under the appropriate environmental conditions (28.5 ± 0.5 °C, light/dark cycle: 14/10 h) up to 96 h post-fertilization (hpf). For the studies, the National Institutes of Health Guide for the Care and Use of Laboratory Animals (Directive 2010/63/EU) was applied. Thus, for the yolk-feeding larvae up to 120 hpf ethical approval is not required. Nevertheless, all attempts were made to minimize the number of animals and their suffering. Immediately after the experiments, the larval zebrafish were euthanized in […] tricaine solution.
In order to assess the effect of astragaloside IV on the developing organism, the zebrafish embryo acute toxicity test was carried out according to the Organization for Economic Cooperation and Development recommendation for the testing of chemicals (Test No. 236) as described previously. One hour after fertilization, viable, perfectly spherical and completely transparent embryos were selected and transferred to 12 well plates (Sarstedt, Germany). The embryos were randomly divided into control and experimental groups. The embryos were kept in each well until the appropriate stage of development was reached of 96 hpf. Two batches of embryos (3 wells per batch, n = 5–6 per well) were kept in 3 mL of zebrafish E3 medium without treatment, i.e., the control group and that was supplemented with 25 µg/mL of astragaloside IV, i.e., the experimental group. Mortality was assessed after 23, 47, 71 and 95 h of exposition. Hatchability was evaluated after 71 and 95 h of exposition. Morphological abnormalities were scored after 95 h of exposition: heartbeat, heart oedema, yolk sac utilization/necrosis, jaw development, eye size, body axis and haemorrhage. Furthermore, to assess muscle function and performance, the touch-evoked response was performed by slight touching of the tail with metal tweezers. The criteria for the larval response were as follows: absent, decreased and normal, as described in detail in our previous paper.
The obtained data were pooled together. The Chi-squared test or the Fisher’s exact test was used for statistical purposes.

[6] = post-mortem brain tissues of mice; cited from earlier work

Row | SMILES | s (slope of Soczewiński-Wachtmeister equation) [1] | logkw [1] | s (slope of Soczewiński-Wachtmeister equation) [2] | logkw [2] | IC50 [3] [mg] | cell viability versus control group (saline) ([4]; 25 μg/mL) | cell viability versus control group (saline) ([4]; 6 and 12.5 μg/mL) | decrease in cellular SH-SY5Y viability ([4]; all analysed conditions (6, 12.5, 25 μg/mL)) | mortality rate versus control ([5]; 25 µg/mL, 1, 2, 3 and 4 dpf, p > 0.05) | larval hatchability ([5]; 25 µg/mL, 3- and 4-day-old fish, p > 0.05) | scored morphological abnormalities versus control ([5]; 25 µg/mL, 95 h exposition) | touch-evoked response ([5]; 25 µg/mL, 95 h exposition) | logBB [6]
1 | CC(=O)OC1C(O)COC(OC2CCC34CC35CCC3(C)C(C6(C)CCC(C(C)(C)O)O6)C(O)CC3(C)C5CC(OC3OC(CO)C(O)C(O)C3O)C4C2(C)C)C1OC(C)=O (stereo not drawn) [A I, Astragaloside I] | 5.590 | 3.234 | 6.040 | 2.713 |  |  |  |  |  |  |  |  | 
2 | CC(=O)O[C@H]1[C@H](O[C@H]2CC[C@]34C[C@]35CC[C@]3(C)[C@@H]([C@@]6(C)CC[C@@H](C(C)(C)O)O6)[C@@H](O)C[C@@]3(C)[C@@H]5C[C@H](O[C@@H]3O[C@H](CO)[C@@H](O)[C@H](O)[C@H]3O)[C@H]4C2(C)C)OC[C@@H](O)[C@@H]1O [A II, Astragaloside II] | 6.570 | 3.209 | 4.715 | 2.104 | 0.00488 |  |  |  |  |  |  |  | 
3 | CC(C)(O)[C@@H]1CC[C@](C)([C@H]2[C@@H](O)C[C@@]3(C)[C@@H]4C[C@H](O)[C@H]5C(C)(C)[C@@H](O[C@@H]6OC[C@@H](O)[C@H](O)[C@H]6O[C@@H]6O[C@H](CO)[C@@H](O)[C@H](O)[C@H]6O)CC[C@@]56C[C@@]46CC[C@]23C)O1 [A III, Astragaloside III] | 5.681 | 2.627 | 4.165 | 1.807 | 0.0033 |  |  |  |  |  |  |  | 
4 | CC(C)(O)[C@@H]1CC[C@](C)([C@H]2[C@@H](O)C[C@@]3(C)[C@@H]4C[C@H](O[C@@H]5O[C@H](CO)[C@@H](O)[C@H](O)[C@H]5O)[C@H]5C(C)(C)[C@@H](O[C@@H]6OC[C@@H](O)[C@H](O)[C@H]6O)CC[C@@]56C[C@@]46CC[C@]23C)O1 [A IV, Astragaloside IV] | 6.000 | 2.668 | 3.965 | 1.727 | 0.00316 | slightly lower | slightly higher | no significant decrease | no difference | did not affect | no difference | normal | 0.49

— publication PMC10252989, “Significance of Astragaloside IV from the Roots of Astragalus mongholicus as an Acetylcholinesterase Inhibitor—From the Computational and Biomimetic Analyses to the In Vitro and In Vivo Studies of Safety” (International Journal of Molecular Sciences, 2023)
